# In US20240382474A1, “ENPP1 MODULATORS AND USES THEREOF” (Vir Biotechnology, Inc., priority 2021, published 2024):
# Molecular target: T1, human ENPP1 enzymatic domain (Homo sapiens, UniProt P22413)
# T1 construct: recombinant protein containing the human ENPP1 enzymatic domain; purchased Viva Biotech
# T1 sequence (P22413 191-591 limits assumed): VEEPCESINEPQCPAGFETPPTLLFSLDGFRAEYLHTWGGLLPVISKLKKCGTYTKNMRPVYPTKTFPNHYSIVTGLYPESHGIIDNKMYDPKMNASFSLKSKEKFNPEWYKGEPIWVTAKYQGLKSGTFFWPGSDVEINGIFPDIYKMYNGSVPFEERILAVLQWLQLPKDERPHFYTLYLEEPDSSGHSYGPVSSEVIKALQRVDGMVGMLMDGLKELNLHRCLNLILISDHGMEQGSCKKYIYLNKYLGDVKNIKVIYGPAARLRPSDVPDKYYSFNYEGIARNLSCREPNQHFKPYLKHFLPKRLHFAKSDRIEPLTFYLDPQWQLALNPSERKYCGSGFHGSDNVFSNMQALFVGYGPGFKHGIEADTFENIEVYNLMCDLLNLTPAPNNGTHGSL
# Assay: ENPP1 Enzymatic Inhibition Assay (2′3′-cGAMP substrate, AMP-Glo luminescence)
# Assay type: biochemical
# Conditions: 1 nM ENPP1, 20 uM 2′3′-cGAMP, 30 minutes at 37° C.
# Method: The inhibition of ENPP1's phosphodiesterase activity were tested in a purified enzymatic assay using 2′3′-cyclic GAMP as a substrate which allowed for the release of cleaved AMP to be monitored using a luminescent assay.
# Putative inhibitors were diluted in assay buffer (50 mM Tris pH 8.0, 250 mM NaCl, 0.5 mM CaCl2), 1 uM ZnCl2, 1% DMSO) and pre-incubated for 15 minutes at 37° C. with recombinant protein containing the human ENPP1 enzymatic domain (Viva Biotech). The enzymatic reaction was initiated upon addition of the 2′3′-cGAMP substrate. The final reaction concentrations were 1 nM ENPP1 and 20 uM 2′3′-cGAMP substrate in a 25 uL volume. Inhibitor concentrations ranged from 10 uM to 0.056 nM. The reaction was incubated for 30 minutes at 37° C.
# After reacting for 30 minutes, the amount of AMP generated from the cleavage of 2′3′-cGAMP was determined using the Promega AMP-Glo method according to the manufacturer's protocol. First, AMP-Glo reagent 1 was added and incubated with the reaction mix for 1 hour at room temperature. Second, AMP Detection solution was added and the mixture was incubated for an additional hour. The luminescence of the mixture was read on a Perkin Elmer Ensight plate reader.
# The maximum and minimum levels of ENPP1 activity were established using no inhibitor and no enzyme controls, respectively. The activity observed using ENPP1 inhibitors was quantified as the percent of activity relative to these controls. IC50 values were calculated using CDD Vault by fitting a sigmoidal variable slope nonlinear regression model to the data.
row,Structure (SMILES),IC50 [nM]
1,"COc1ccc2c(Oc3ccc([S@@](=N)(=O)NC[C@H](O)CO)cc3)ccnc2c1 [Compound 34, (S)-N-((S)-2,3-dihydroxypropyl)-4-((7-methoxyquinolin-4-yl)oxy)benzenesulfonimidamide]",< 10
2,"COc1ccc2c(Nc3ccc([S@](=N)(=O)N[C@H](C)CO)cc3)ccnc2c1 [Compound 35, (R)-N-((R)-1-hydroxypropan-2-yl)-4-((7-methoxyquinolin-4-yl)amino)benzenesulfonimidamide]",< 10
3,"COc1ccc2c(Nc3ccc([S@@](=N)(=O)N[C@H](C)CO)cc3)ccnc2c1 [Compound 36, (S)-N-((R)-1-hydroxypropan-2-yl)-4-((7-methoxyquinolin-4-yl)amino)benzenesulfonimidamide]",< 10
4,"COc1ccc2c(Nc3ccc([S@](=N)(=O)NC[C@H](C)O)cc3)ccnc2c1 [Compound 37, (R)-N-((S)-2-hydroxypropyl)-4-((7-methoxyquinolin-4-yl)amino)benzenesulfonimidamide]",< 10
5,"COc1ccc2c(Nc3ccc([S@@](=N)(=O)NC[C@H](C)O)cc3)ccnc2c1 [Compound 38, (S)-N-((S)-2-hydroxypropyl)-4-((7-methoxyquinolin-4-yl)amino)benzenesulfonimidamide]",< 10
6,"COc1ccc2c(Nc3ccc([S@](=N)(=O)N[C@@H](C)CO)cc3)ccnc2c1 [Compound 39, (R)-N-((S)-1-hydroxypropan-2-yl)-4-((7-methoxyquinolin-4-yl)amino)benzenesulfonimidamide]",< 10
7,"COc1ccc2c(Nc3ccc([S@@](=N)(=O)N[C@@H](C)CO)cc3)ccnc2c1 [Compound 40, (S)-N-((S)-1-hydroxypropan-2-yl)-4-((7-methoxyquinolin-4-yl)amino)benzenesulfonimidamide]",10 to 100
8,"COc1ccc2c(Nc3ccc([S@](=N)(=O)N[C@@H](C)c4ccnn4C)cc3)ccnc2c1 [Compound 41, (R)-4-((7-methoxyquinolin-4-yl)amino)-N-((S)-1-(1-methyl-1H-pyrazol-5-yl)ethyl)benzenesulfonimidamide]",10 to 100
9,"COc1ccc2c(Nc3ccc([S@@](=N)(=O)N[C@@H](C)c4ccnn4C)cc3)ccnc2c1 [Compound 42, (S)-4-((7-methoxyquinolin-4-yl)amino)-N-((S)-1-(1-methyl-1 H-pyrazol-5-yl)ethyl)benzenesulfonimidamide]",< 10
10,"COc1ccc2c(Oc3ccc([S@](=N)(=O)NC[C@H](O)C(C)(C)C)cc3)ccnc2c1 [Compound 43, (R)-N-((R)-2-hydroxy-3,3-dimethylbutyl)-4-((7-methoxyquinolin-4-yl)oxy)benzenesulfonimidamide]",< 10
11,"COc1ccc2c(Oc3ccc([S@@](=N)(=O)NC[C@H](O)C(C)(C)C)cc3)ccnc2c1 [Compound 44, (S)-N-((R)-2-hydroxy-3,3-dimethylbutyl)-4-((7-methoxyquinolin-4-yl)oxy)benzenesulfonimidamide]",10 to 100
12,"COc1ccc2c(Nc3ccc([S@](=N)(=O)NC[C@H](C)O)cc3F)ccnc2c1 [Compound 45, (R)-3-fluoro-N-((S)-2-hydroxypropyl)-4-((7-methoxyquinolin-4-yl)amino)benzenesulfonimidamide]",10 to 100
13,"COc1ccc2c(Nc3ccc([S@@](=N)(=O)NC[C@H](C)O)cc3F)ccnc2c1 [Compound 46, (S)-3-fluoro-N-((S)-2-hydroxypropyl)-4-((7-methoxyquinolin-4-yl)amino)benzenesulfonimidamide]",< 10
14,"COc1ccc2c(Nc3ccc([S@](=N)(=O)NC[C@H](C)O)c(F)c3)ccnc2c1 [Compound 47, (R)-2-fluoro-N-((S)-2-hydroxypropyl)-4-((7-methoxyquinolin-4-yl)amino)benzenesulfonimidamide]",< 10
15,"COc1ccc2c(Nc3ccc([S@@](=N)(=O)NC[C@H](C)O)c(F)c3)ccnc2c1 [Compound 48, (S)-2-fluoro-N-((S)-2-hydroxypropyl)-4-((7-methoxyquinolin-4-yl)amino)benzenesulfonimidamide]",< 10
16,"COc1ccc2c(Nc3ccc([S@](=N)(=O)NCCCn4cnnc4)cc3)ccnc2c1 [Compound 49, (R)-N-(3-(4H-1,2,4-triazol-4-yl)propyl)-4-((7-methoxyquinolin-4-yl)amino)benzenesulfonimidamide]",< 10

row,Structure (SMILES),IC50 [nM]
1,"COc1ccc2c(Nc3ccc([S@@](=N)(=O)NCCCn4cnnc4)cc3)ccnc2c1 [Compound 50, (S)-N-(3-(4H-1,2,4-triazol-4-yl)propyl)-4-((7-methoxyquinolin-4-yl)amino)benzenesulfonimidamide]",< 10
2,"COc1cc2nccc(Nc3ccc([S@](=N)(=O)NC[C@@H](C)O)cc3)c2cc1OC [Compound 51, (R)-4-((6,7-dimethoxyquinolin-4-yl)amino)-N-((R)-2-hydroxypropyl)benzenesulfonimidamide]",10 to 100
3,"COc1cc2nccc(Nc3ccc([S@@](=N)(=O)NC[C@@H](C)O)cc3)c2cc1OC [Compound 52, (S)-4-((6,7-dimethoxyquinolin-4-yl)amino)-N-((R)-2-hydroxypropyl)benzenesulfonimidamide]",< 10
4,"COc1ccc2c(Nc3ccc([S@](=N)(=O)NCCO)cc3)ccnc2c1 [Compound 53, (R)-N-(2-hydroxyethyl)-4-((7-methoxyquinolin-4-yl)amino)benzenesulfonimidamide]",< 10
5,"COc1ccc2c(Nc3ccc([S@@](=N)(=O)NCCO)cc3)ccnc2c1 [Compound 54, (S)-N-(2-hydroxyethyl)-4-((7-methoxyquinolin-4-yl)amino)benzenesulfonimidamide]",< 10
6,"COc1ccc2c(Nc3ccc([S@](=N)(=O)NC[C@@H](C)O)cc3)ccnc2c1 [Compound 55, (R)-N-((R)-2-hydroxypropyl)-4-((7-methoxyquinolin-4-yl)amino)benzenesulfonimidamide]",< 10
7,"COc1cccc2c(Nc3ccc([S@](=N)(=O)NCCO)cc3)ccnc12 [Compound 57, (R)-N-(2-hydroxyethyl)-4-((8-methoxyquinolin-4-yl)amino)benzenesulfonimidamide]",> 100
8,"COc1cccc2c(Nc3ccc([S@@](=N)(=O)NCCO)cc3)ccnc12 [Compound 58, (S)-N-(2-hydroxyethyl)-4-((8-methoxyquinolin-4-yl)amino)benzenesulfonimidamide]",< 10
9,"COc1ccc2c(Nc3ccc([S@](=N)(=O)NC[C@H](O)C(C)(C)C)cc3)ccnc2c1 [Compound 59, (R)-N-((R)-2-hydroxy-3,3-dimethylbutyl)-4-((7-methoxyquinolin-4-yl)amino)benzenesulfonimidamide]",< 10
10,"COc1ccc2c(Nc3ccc([S@@](=N)(=O)NC[C@H](O)C(C)(C)C)cc3)ccnc2c1 [Compound 60, (S)-N-((R)-2-hydroxy-3,3-dimethylbutyl)-4-((7-methoxyquinolin-4-yl)amino)benzenesulfonimidamide]",< 10
11,"COc1cccc2c(Nc3ccc([S@](=N)(=O)NC[C@@H](C)O)cc3)ncnc12 [Compound 61, (R)-N-((R)-2-hydroxypropyl)-4-((8-methoxyquinazolin-4-yl)amino)benzenesulfonimidamide]",> 100
12,"COc1cccc2c(Nc3ccc([S@@](=N)(=O)NC[C@@H](C)O)cc3)ncnc12 [Compound 62, (S)-N-((R)-2-hydroxypropyl)-4-((8-methoxyquinazolin-4-yl)amino)benzenesulfonimidamide]",10 to 100
13,"COc1ccc2c(Nc3ccc([S@](=N)(=O)NC[C@@H](C)O)cc3)ncnc2c1 [Compound 63, (R)-N-((R)-2-hydroxypropyl)-4-((7-methoxyquinazolin-4-yl)amino)benzenesulfonimidamide]",10 to 100
14,"COc1ccc2c(Nc3ccc([S@@](=N)(=O)NC[C@@H](C)O)cc3)ncnc2c1 [Compound 64, (S)-N-((R)-2-hydroxypropyl)-4-((7-methoxyquinazolin-4-yl)amino)benzenesulfonimidamide]",< 10
15,"COc1cc2nccc(Nc3ccc([S@@](=N)(=O)NC4CC4)cc3)c2cc1F [Compound 67, (S)-N-cyclopropyl-4-((6-fluoro-7-methoxyquinolin-4-yl)amino)benzenesulfonimidamide]",< 10
16,"COc1cc2nccc(Nc3ccc([S@@](=N)(=O)NC[C@@H](C)O)cc3)c2cc1F [Compound 68, (S)-4-((6-fluoro-7-methoxyquinolin-4-yl)amino)-N-((R)-2-hydroxypropyl)benzenesulfonimidamide]",< 10
